Experimental data taken from PubChem BioAssay AID540271 (Broad Institute, 2011).
“And” between values parts separate entries of the source, which are not always exact repeats. Identical values can stand only once. The source made the active and inactive calls. How the calls were made is not given here.

Test system: S. cerevisiae expressing PfHSP40, growth rescue, plate reader
Test: Yeast growth rescue from Plasmodium falciparum HSP40 toxicity, dose response confirmatory, plate reader (AID 540271);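 further: yeast growth read after three days of incubation at 30 °C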

COc1cc(NC(=O)CSc2ccc(-c3ccccn3)nn2)cc(OC)c1
AC50: 1.59 µM

CCc1ccc(OCc2n[nH]c(=S)n2Cc2ccccc2)cc1
AC50: 5.29 µM

CC(/C=N/n1c(COc2ccccc2)n[nH]c1=S)=C\c1ccccc1
AC50: 4.55 µM

CC1(C)C=Cc2c(ccc3c2OC[C@@H](c2ccc(O)cc2O)C3)O1
AC50: 5.69 µM

O=C(c1ccccc1)c1coc2c1C(=O)c1ccccc1C2=O
AC50: 11.7 µM

CC(C)=CCc1c(O)ccc(C(=O)Cc2ccccc2)c1O
AC50: 10.8 µM

O=C(N/N=C/c1sc(N2CCOCC2)nc1-c1ccccc1)c1ccccc1O
AC50: 6.17 µM

CCc1ccccc1OCC(=O)Nc1nc(-c2cccnc2)cs1
AC50: 1.84 µM

C=CCOC(Cn1ccnc1)c1ccc(Cl)cc1Cl (stereo not drawn)
AC50: 1.89 µM

O=P(Nc1cccnc1)(Oc1ccccc1Cl)Oc1ccccc1Cl
AC50: 6.5 µM

CCOC(=O)c1ccc(NC(=O)CC2OCCN(CC)C2=O)cc1 (stereo not drawn)
AC50: 4.89 µM

Oc1c(I)cc(Cl)c2cccnc12
AC50: 0.629 µM

CC(C)N1CCN(c2ccc(OCC3COC(Cn4cncn4)(c4ccc(Cl)cc4Cl)O3)cc2)CC1 (stereo not drawn)
AC50: 2.01 µM

CC(C)(C)c1ccc(-n2nc(C#N)c(Cl)cc2=O)cc1
AC50: 6.03 µM

FC(F)(F)c1nc(SCc2ccc(Cl)cc2Cl)n[nH]1
AC50: 6.21 µM

O=S1OC(c2ccccc2)c2cc(Cl)ccc21 (stereo not drawn)
AC50: 10.8 µM

COc1ccc(S(=O)(=O)N(C(=O)c2ccncc2)c2ccc(OC(=O)c3ccncc3)cc2)cc1
AC50: 4.46 µM

O=C(Nc1ccc(Cl)cc1C(=O)Nc1ccc(Br)cn1)c1ccco1
AC50: 3.64 µM

Cc1nc2ccc(NC(=O)Cc3ccc4c(c3)OCCO4)cc2s1
AC50: 4.83 µM

Nc1cc2c3ccccc3ccc2c2ccccc12
AC50: 2.13 µM

CC[n+]1c(/C=C/C=C/c2ccc(N(C)C)cc2)sc2ccccc21
AC50: 3.71 µM

O=C(NNC(=O)c1cc(Cl)ccc1O)c1ccc(NS(=O)(=O)c2cccs2)cc1
AC50: 5.61 µM

CNc1cc(CSC)nc(SCc2ccc(Cl)cc2Cl)n1
AC50: 4.18 µM

O=c1c2ccccc2nc(-c2cccc(Cl)c2)n1O
AC50: 3.21 µM

COc1ccc2[nH]c(=O)c(CN(Cc3cccnc3)C(=O)Nc3ccccc3)cc2c1
AC50: 6.16 µM

CCOc1cc([N+](=O)[O-])cc(/C=N/NC(=O)c2c(-c3ccccc3)noc2C)c1O
AC50: 4.9 µM

CC(C)(c1cc(Br)c(O)c(Br)c1)c1cc(Br)c(O)c(Br)c1
AC50: 8.13 µM

CCCNC(=O)c1ccc2c(=O)c(O)c(-c3ccc(F)cc3)[nH]c2c1
AC50: 6.08 µM

Cc1c(C(=O)O)cccc1-c1ccc(/C=N/Nc2ccc(Br)cc2)o1
AC50: 6.31 µM

CC(CNC(=O)COc1ccccc1)OC(=O)Nc1ccc(Cl)c(Cl)c1 (stereo not drawn)
AC50: 6.12 µM

O=C1c2ccccc2C(=O)c2c1oc(C(F)(F)F)c2C(=O)c1ccccc1
AC50: 1 µM

Cc1cc(/C=N/n2cnnc2)c(C)n1-c1ccc(OCc2ccc(F)cc2)cc1
AC50: 4.69 µM

CCc1cc(C(=O)Nc2nc(-c3ccccn3)cs2)sc1C
AC50: 4.3 µM

CCCCn1c(=O)c(C(=O)NCc2ccncc2)c(O)c2ccccc21
AC50: 4.99 µM

O=C1c2cccc(Cl)c2C(=O)c2c1cccc2N1CCCC1
AC50: 4.9 µM

CC(C)(C)c1ccc(C(=O)NC(=S)NNC(=O)c2cccs2)cc1
AC50: 1.89 µM

CCc1ccc(NC(=O)CSc2ccc(-c3ccccn3)nn2)cc1
AC50: 2.44 µM

COc1cc2cnc(-c3ccccc3)c(C(=O)c3ccc(F)cc3)c2cc1OC
AC50: 4.57 µM

COc1cc(/C=N/O)cc(Br)c1OCc1cccc(Cl)c1
AC50: 5.31 µM

COc1cccc(/C=N/NC(=O)c2nc(-c3ccccc3)cc(-c3ccccc3)n2)c1O
AC50: 3.51 µM

O=c1c(Cl)c(Cl)cnn1Cc1nnc(-c2ccc(Cl)cc2)o1
AC50: 7.45 µM

CCN(CC)c1ccc(/C=N/NC(=O)c2c(Cl)cnn2C)c(O)c1
AC50: 4.78 µM

CCCCCCCN1N=C(C)C(C(=O)c2ccccc2)C1=O (stereo not drawn)
AC50: 3.73 µM

CNC1=C(N(C(C)=O)c2ccc(Br)cc2)C(=O)c2ccccc2C1=O
AC50: 6.77 µM

CC(=O)NC(c1cccc([N+](=O)[O-])c1)c1ccc2cccnc2c1O (stereo not drawn)
AC50: 3.95 µM

CN(c1ccccc1)c1nc(N2CCCC2)nc(-n2ccnc2)n1
AC50: 1.04 µM

CC1CCN(c2nc(-c3ccncc3)nc3ccccc23)CC1
AC50: 7.47 µM

Cc1cccc(NS(=O)(=O)c2ccc(-c3cnc(C4CC4)o3)cc2)c1C
AC50: 5.32 µM

CCOC(=O)c1cc2c(=Cc3ccc(N(C)C)cc3)c3ccccc3n2[n+]1C
AC50: 3.75 µM

COc1ccc(-c2sc3ccccc3c2C#Cc2cncn2C)cc1
AC50: 6.77 µM

C[n+]1c2cc(N)ccc2cc2ccc(N)cc21
AC50: 1.82 µM and 1 µM

COC(=O)/C=C\C(=O)Nc1cccc([N+](=O)[O-])c1
AC50: 1.83 µM

FC(F)(F)c1cccc(N2CCc3cn[nH]c32)c1
AC50: 0.446 µM

Cc1ccc(NC(=S)c2nc3ccccc3[nH]2)c(C)c1
AC50: 6.15 µM

Cc1ccc(SCCNC(=S)Nc2ccc(C)c(C)c2)cc1
AC50: 6.21 µM

CCCCCCCn1c(=O)c(C(=O)OC)c(N)c2ccccc21
AC50: 4.64 µM

CSC(=S)N/N=C/c1ccccc1
AC50: 5.83 µM

O=S(=O)(Nc1ccccc1)c1ccc(Oc2ncc(C(F)(F)F)cc2Cl)cc1
AC50: 6.09 µM

COc1cc(NS(=O)(=O)c2ccc(C)cc2)c2ncccc2c1
AC50: 5.4 µM

Cc1nc2ccc(NC(=O)COc3cccc(F)c3)cc2s1
AC50: 10.2 µM

Cc1ccc(C(C)(C)C)cc1S(=O)(=O)Nc1ncnc2sccc12
AC50: 2.83 µM

COc1ccc(C(=O)On2c(-c3ccc(Br)cc3)nc3ccccc3c2=O)cc1
AC50: 4.13 µM

Cc1ccc(CNC(=O)CSc2ccc(-c3ccccn3)nn2)cc1
AC50: 4.21 µM

Oc1c(CN2CCCC2)cc(COCc2ccccc2)c2cccnc12
AC50: 5.55 µM

O=C(CSc1ccc(-c2ccccn2)nn1)NC1CCCC1
AC50: 11.1 µM

Cc1c(C2(O)CCCCC2)[nH]c2ccc(C(F)(F)F)cc12
AC50: 7.22 µM

COc1ccc2c(c1)OC[C@H]1[C@H]2N2C(=O)c3cc(OC)ccc3NC(=O)[C@@]2(C)[C@H]1c1ccccc1
AC50: 4.84 µM

CCCCC(=O)NC(c1ccc(N(C)C)cc1)c1ccc2cccnc2c1O (stereo not drawn)
AC50: 1.65 µM

O=C(COc1ccc([N+](=O)[O-])cc1)Nc1nc(-c2ccccn2)cs1
AC50: 5.37 µM

Cc1n[nH]c(C)c1N=Nc1ccc(Br)cc1
AC50: 6.88 µM

O=C(Nc1ccc(C2=NCCN2)cc1)c1ccc(C(=O)Nc2ccc(C3=NCCN3)cc2)c(Cl)c1
AC50: 4.17 µM

CCCCCCN1N=C(C)C(C(=O)c2ccc(Cl)cc2)C1=O (stereo not drawn)
AC50: 3.23 µM

O/N=C(\c1ccc(Cl)cc1)c1cc2ccccc2o1
AC50: 5.38 µM

C=C(C)COc1ccc(-c2[nH]ncc2-c2ccccc2)c(O)c1
AC50: 5.52 µM

O=C(NOC(=O)c1ccccc1)c1ccccc1
AC50: 2.11 µM

COc1ccc(N(C(=O)c2ccncc2)S(=O)(=O)c2ccccc2)cc1
AC50: 2.4 µM

CCCCCCCCCCOC(=O)Cn1c(COc2ccccc2OC)[n+](C)c2ccccc21
AC50: 6.39 µM

O=C(N[C@@H](Cc1ccccc1)C(=O)CCl)OCc1ccccc1
AC50: 2.19 µM

CC(C)CN=Cc1c(O)c([N+](=O)[O-])cc2oc3c(c12)CCCC3
AC50: 1.33 µM

CCCOc1ccc(N2C(=O)CC(N3CCC(C(=O)OCC)CC3)C2=O)cc1 (stereo not drawn)
AC50: 6.34 µM

Oc1cccc2ccc(Nc3ccccn3)nc12
AC50: 4.98 µM

CC(C)(C)C(=O)C(Oc1ccc(Cl)cc1)n1cncn1 (stereo not drawn)
AC50: 4.7 µM

Cc1cccc(Oc2nc(-c3ccccn3)nc3ccccc23)c1
AC50: 6.77 µM

Cc1nn2c(-c3ccncc3)nnc2c2ccccc12
AC50: 7.28 µM

Cc1ccc(-n2nnnc2SCC(=O)N2CCc3ccccc3C2)c(C)c1
AC50: 5.8 µM

O=C(COC(=O)c1ccc([N+](=O)[O-])o1)NC12CC3CC(CC(C3)C1)C2
AC50: > 12 µM (inactive)

O=C(CSc1nnc(-c2ccccc2O)n1Cc1ccccc1)NNC(=O)c1ccccc1O
AC50: 3.94 µM

CC1CC(C)CN(C(=O)c2cccc(S(=O)(=O)Nc3cc(C(F)(F)F)ccc3Cl)c2)C1 (stereo not drawn)
AC50: 5.69 µM

COc1ccc2c(n1)Sc1nc3ccccc3nc1N2
AC50: 1.35 µM

N#C/C(=C\c1cccc(Oc2ccccc2)c1)C(=O)N1CCOCC1
AC50: 5.91 µM

Cc1nc(SCc2ccc(OCCC(C)C)cc2)n[nH]1
AC50: 3.08 µM

CC1Oc2ccccc2C=C1/C=N/Nc1ccc(C(=O)O)cc1 (stereo not drawn)
AC50: 10.1 µM

CC/C(=N/NC(=O)c1ccccc1O)c1c(C)[nH]n(-c2ccccc2)c1=O
AC50: 0.705 µM

CCCCNc1c(-c2cccc(-c3ccc(OC)cc3)c2)nc2ccc(C)cn12
AC50: 5.67 µM

Cc1ccccc1Oc1nc(-c2ccccn2)nc2ccccc12
AC50: 2.29 µM

Nc1nonc1C(=O)NCCN=Cc1cc(Cc2ccccc2)cc(Br)c1O
AC50: 0.642 µM

Clc1ccc(C(Cn2ccnc2)OCc2c(Cl)cccc2Cl)c(Cl)c1 (stereo not drawn)
AC50: 0.241 µM

CCCCNc1c(-c2cccc(Sc3ccc(OC)cc3)c2)nc2ccccn12
AC50: 8.12 µM

Cc1onc(-c2ccccc2)c1C(=O)NC(=S)NNC(=O)c1cc(-c2ccc(F)cc2)n[nH]1
AC50: > 4.2 µM (inactive)

O=C(NNC(=O)c1cc(Cl)ccc1O)c1cccc(S(=O)(=O)N2CCOCC2)c1
AC50: 5.28 µM

CC(C)(C)n1nc(-c2ccc(F)cc2)c2c(N)ncnc21
AC50: 1.47 µM

C(=C1c2ccccc2-c2ccccc21)c1ccncc1
AC50: 6.18 µM

COc1cc2c(c(OC)c1OC)-c1ccc(O)c(=O)cc1[C@@H](N)CC2
AC50: 2.52 µM

CC1(S(=O)(=O)O)CC(=O)c2ccccc2C1=O (stereo not drawn)
AC50: > 12 µM (inactive)

Cc1ccc(C(C[N+](=O)[O-])c2c(N)n(C)c(=O)n(C)c2=O)cc1 (stereo not drawn)
AC50: 6.03 µM

Cc1ccc(C(=O)C(SC(C)(C)C)n2cncn2)cc1 (stereo not drawn)
AC50: 5.78 µM

O=C(NCCC1=CCCCC1)c1c(O)nc2sccn2c1=O
AC50: 3.82 µM

Cc1ccccc1NC(=O)CSc1ccc(-c2ccccn2)nn1
AC50: 4.42 µM

CCCCCCCc1ccc(-c2ccc(O)cc2)nc1
AC50: 5.12 µM

Cc1cc(C)c(OCC(=O)Nc2nc(-c3ccccn3)cs2)c(C)c1
AC50: 4.34 µM

O=[N+]([O-])c1ccc(Sc2cccc[n+]2[O-])c2nonc12
AC50: 2.43 µM

O=C(NCC1CC1(Cl)Cl)Nc1ccc(Cl)c(Cl)c1 (stereo not drawn)
AC50: 5.73 µM

Oc1c(C(Nc2cccc(C(F)(F)F)c2)c2ccncc2)ccc2cccnc12 (stereo not drawn)
AC50: 1.92 µM

Oc1c(Cl)c(Cl)c(Cl)c(Cl)c1Cl
AC50: 2.89 µM

O=C(N/N=C/c1cc(Cl)cc([N+](=O)[O-])c1O)c1ccccc1NS(=O)(=O)c1cccs1
AC50: 1.04 µM

CC12CC3(C)CC(C)(C1)CC(NC(=O)N1CCCC1)(C2)C3
AC50: 1.7 µM

CC(C)(CN1CCc2ccccc2C1)NS(=O)(=O)c1ccc(Cl)cc1
AC50: 11 µM

Cc1ccc2c(C)c3ccc4ccccc4c3c[n+]2c1
AC50: 6 µM
